Results on one compound are retold here after patent US12215351B2, “Methods for inducing hematopoietic stem cell specificity” (THE CHILDREN'S MEDICAL CENTER CORPORATION, priority 2017, dated 2025).

Assay [1] relates to Runx1:GFP positive cells in the CHT. As to the kind of experiment: Runx1:GFP positive cells in the CHT of live embryos (confocal imaging). Format: in vivo, zebrafish. Particulars: 5 μM. Here is the method: Transgenic Runx1:GFP embryos from the same clutch were treated at the time points indicated (n>10 embryos per treatment group) with 5 μM Ro5-3335 diluted in E3. Live embryos were embedded in 0.8% low-melting point agarose containing 0.04 mg/mL Tricaine and imaged on a Nikon Eclipe Ti microscope with 20× Plan-Apo DIC N.A. 0.75. CHT cells were counted blindly in Z-stack image projections processed on Imaris software (Bitplane).

A further assay deals with RUNX1c+24 reporter. In words: RUNX1c-enhancer reporter cell line undergoing EHT. The format is cell-based, human. To be noted: day 4 of EHT. How it is done:
(§1) Human iPSCs were cultured and differentiated into embryoid bodies as previously described^28. At day 8 of embryoid body differentiation, HE cells were magnetically purified for EHT, and treated with DMSO or Ro5-3335. FACS analysis for CD34 and CD45 was performed at day 6 of EHT using an LSRFortessa™ (BD Biosciences). In the case of the RUNX1c-reporter cell line^21, RUNX1c activity was analyzed at day 4 of EHT using an LSR Fortessa (BD Biosciences).

Another assay relates to Runx1:GFP. As to the kind of experiment: High-throughput image-based chemical screen in Runx1:GFP zebrafish embryo cultures. Format: cell-based. To be noted: confirmed by a dose response curve. How it is done:
Stage-matched zebrafish embryos were dissociated at 24 hpf and grown in medium composed of 85% LDF medium, 5% FBS, and 10% embryo extract. LDF medium contains 50% Leibowitz's L-15 (Invitrogen), 20% DMEM (Invitrogen), and 30% DMEM/F-12 (Invitrogen), supplemented with 2% B27 (Gibco), 15 mM HEPES (Gibco), 1% L-glutamine (Gibco), 1% N2 (Gibco), 10 nM sodium selenite (Sigma), 0.018% sodium bicarbonate (Gibco), 0.04% Primocin (Invivogen), and 0.2% Penicillin-Streptomycin (Gibco). All zebrafish experiments and procedures were performed as per protocols approved by the Boston Children's Hospital IACUC.
To screen each chemical library plate in duplicate, two 384-well plates were coated with 0.1% gelatin. Runx1:GFP^10 embryos at 24 hpf were washed with E3 embryo water and dechorionated with pronase. Embryos were washed with E3 embryo water, resuspended in blastomere media, mechanically homogenized, and filtered through a 40 µm nylon mesh filter. […]
A 4× image of the nuclear and fluorescent expression from the entire well was then thresholded and percent area was computed using ImageJ/Fiji. […] From that standard curve, residuals were calculated for each treated well and divided by the standard deviation in the control wells to obtain the z-score of each chemical treatment. […]

Assay [2] has as its system Runx1:GFP+ cells derived from the zebrafish embryo culture. In words: Zebrafish transplantation of cultured Runx1:GFP+ cells into casper recipients, whole kidney marrow FACS. The format is in vivo. To be noted: cells cultured 2 days with 50 μM, analyzed approximately 3 months post-transplant. How it is done:
Runx1:GFP ubi:mCherry embryos were dissociated at 24 hpf and plated with 50 μM Ro5-3335 or DMSO. After two days in culture, double-positive cells were sorted and transplanted into 48 hpf casper recipients as previously described^10. The recipients were grown to adulthood and the whole kidney marrow was dissected at approximately 3 months and analyzed in an LSRII (BD Biosciences). As negative and positive controls, the kidney marrow of two casper adults and one Runx1:GFP ubi:mCherry adult were analyzed.

In assay [3] the test system is iPSC-derived human hemogenic endothelium cells. As to the kind of experiment: Intrafemoral transplantation of treated human HE cells into NOD/LtSz-scidIL2Rgnull mice. Format: in vivo. To be noted: HE cells treated with 25 μM, 6 weeks post-transplant. Here is the method: Intrafemoral transplantations were performed as described previously^28. NOD/LtSz-scidIL2Rgnull mice (Jackson Laboratory) were transplanted with approximately 100,000 HE cells at day 4 that were treated with 25 μM Ro5-3335 or DMSO. Due to the limited cell number that can be obtained during EHT, the transplants were performed over the course of several weeks.

Assay [4] relates to human iPSC-derived hemogenic endothelium cells. In words: Human EHT culture of iPSC-derived hemogenic endothelium, FACS for CD34 and CD45. Format: cell-based. Particulars: day 6 of EHT. Here is the method:
as §1

Structures are written as SMILES.

On to `O=C1CN=C(c2ccc[nH]2)c2cc(Cl)ccc2N1` [Ro5-3335, 7-Chloro-1,3-dihydro-5-(1H-pyrrol-2-yl)-2H-1,4-benzodiazepin-2-one], for which the “number of Runx1:GFP+ cells in the CHT at 54 hpf” value in assay [1] (treated 24-30 hpf, imaged at 54 hpf) was “significant increase”. The “number of Runx1:GFP+ cells in the CHT at 72 hpf” value in assay [1] (treated 24-30 hpf, same embryos at 72 hpf) is on record as “A significant difference at 72 hpf was not observed”. The “Runx1:GFP positive cells in the CHT” value was “increased” in assay [1] (treated 24-48 hpf, imaged at 54 hpf); “increased” in assay [1] (treated 24-54 hpf, imaged at 54 hpf); “increased” in assay [1] (treated 24-72 hpf, imaged at 72 hpf). The RUNX1c reporter activity entry with RUNX1c+24 reporter is “dose-dependent effect”. Moreover, in the assay on Runx1:GFP, the “GFP signal in the embryo cultures” value is “increased”. The “GFP+ chimerism in kidney marrow of adult casper recipients” value in assay [2] is reported as “enhanced”. The “B- and T-cells (CD19, CD3)” value in assay [3] is “not detected”. Further, the “engraftment in the contralateral leg” value in assay [3] is on record as “no engraftment detected”. The “engraftment of myeloid cells (CD33)” value in assay [3] is reported as “clear population expressing the myeloid marker CD33”. In addition, the “chimerism of human CD45+ cells in the bone marrow” value in assay [3] (one mouse) was 0.017%. The “CD34+CD45+ cells” value in assay [4] is listed as “significant increase”.
